Results published in paper PMC9768162, “Synthesis of macrocyclic nucleoside antibacterials and their interactions with MraY” (Nature Communications, 2022).
Values after ≈ are worked out from the molar mass of the structure shown. Like-named read-outs stand apart in the source and are kept apart here.

Tests used:
Assay in all cases: Antibacterial activity, MIC by microdilution broth method (CLSI)
[1] = system: E. faecalis; type: cell-based; conditions: for MIC: Enterococcus faecalis; for MIC (range over strains): clinically isolated E. faecalis (15 strains)
[2] = system: E. faecium; type: cell-based, Enterococcus faecium
[3] = system: S. aureus; type: cell-based, Staphylococcus aureus; conditions: for MIC: Staphylococcus aureus; for MIC (range over strains): clinically isolated MRSA (10 strains)
[4] = ATCC 51299 / VRE, E. faecalis (VRE) ATCC 51299
[5] = clinically isolated E. faecalis strain 21
[6] = clinically isolated E. faecalis strain 22
[7] = clinically isolated E. faecalis strain 23
[8] = clinically isolated E. faecalis strain 24
[9] = clinically isolated E. faecalis strain 25
[10] = clinically isolated E. faecalis strain 26
[11] = clinically isolated E. faecalis strain 27
[12] = clinically isolated E. faecalis strain 28
[13] = clinically isolated E. faecalis strain 29
[14] = clinically isolated E. faecalis strain 30
[15] = clinically isolated E. faecalis strain 31
[16] = clinically isolated E. faecalis strain 32
[17] = clinically isolated E. faecalis strain 33
[18] = clinically isolated E. faecalis strain 34
[19] = clinically isolated E. faecalis strain 35
[20] = Enterococcus faecium, ATCC35667, 20 h, E. faecium ATCC 35667, CA-MHB, 37 °C, 20 h, read-out: MIC
[21] = Enterococcus faecium, clinically isolated E. faecium strain 7, read-out: MIC
[22] = ATCC29213, 20 h, S. aureus ATCC 29213, CA-MHB, 37 °C, 20 h
[23] = MRSA, 20 h, S. aureus (MRSA) JE2, CA-MHB, 37 °C, performed once
[24] = MRSA, clinically isolated MRSA #1958
[25] = MRSA, clinically isolated MRSA #2071
[26] = MRSA, clinically isolated MRSA #2110
[27] = MRSA, clinically isolated MRSA #2310
[28] = MRSA, clinically isolated MRSA #2334
[29] = MRSA, clinically isolated MRSA #2931
[30] = MRSA, clinically isolated MRSA #2932
[31] = MRSA, clinically isolated MRSA #2933
[32] = MRSA, clinically isolated MRSA #2934
[33] = MRSA, clinically isolated MRSA #2935

CC1(C)S[C@@H]2[C@H](NC(=O)[C@H](N)c3ccccc3)C(=O)N2[C@H]1C(=O)O [Ampicillin]
MIC [1, 4]: 1 µg/mL (≈ 2.86 µM)
MIC [1, 5]: 1 µg/mL (≈ 2.86 µM)
MIC [1, 6]: 1 µg/mL (≈ 2.86 µM)
MIC [1, 7]: 1 µg/mL (≈ 2.86 µM)
MIC [1, 8]: 0.5 µg/mL (≈ 1.43 µM)
MIC [1, 9]: 1 µg/mL (≈ 2.86 µM)
MIC [1, 10]: 1 µg/mL (≈ 2.86 µM)
MIC [1, 11]: 1 µg/mL (≈ 2.86 µM)
MIC [1, 12]: 1 µg/mL (≈ 2.86 µM)
MIC [1, 13]: 1 µg/mL (≈ 2.86 µM)
MIC [1, 14]: 0.5 µg/mL (≈ 1.43 µM)
MIC [1, 15]: 1 µg/mL (≈ 2.86 µM)
MIC [1, 16]: 1 µg/mL (≈ 2.86 µM)
MIC [1, 17]: 1 µg/mL (≈ 2.86 µM)
MIC [1, 18]: 1 µg/mL (≈ 2.86 µM)
MIC [1, 19]: 0.5 µg/mL (≈ 1.43 µM)
MIC (range over strains) [1]: 0.5 to 1 µg/mL
MIC [2, 20]: 1 µg/mL (≈ 2.86 µM)
MIC ([2]; Enterococcus faecium, ATCC 51559 / VRE, E. faecium (VRE) ATCC 51559): 128 µg/mL (≈ 366 µM)
MIC ([2]; Enterococcus faecium, ATCC 51858 / VRE, E. faecium (VRE) ATCC 51858): 128 µg/mL (≈ 366 µM)
MIC ([2]; Enterococcus faecium, clinically isolated E. faecium strain 1): > 128 µg/mL
MIC ([2]; Enterococcus faecium, clinically isolated E. faecium strain 2): 128 µg/mL (≈ 366 µM)
MIC ([2]; Enterococcus faecium, clinically isolated E. faecium strain 3): > 128 µg/mL
MIC ([2]; Enterococcus faecium, clinically isolated E. faecium strain 4): 128 µg/mL (≈ 366 µM)
MIC ([2]; Enterococcus faecium, clinically isolated E. faecium strain 5): 128 µg/mL (≈ 366 µM)
MIC [2, 21]: 0.5 µg/mL (≈ 1.43 µM)
MIC ([2]; Enterococcus faecium, clinically isolated E. faecium strain 8): 128 µg/mL (≈ 366 µM)
MIC ([2]; Enterococcus faecium, clinically isolated E. faecium strain 9): > 128 µg/mL
MIC ([2]; Enterococcus faecium, clinically isolated E. faecium strain 10): > 128 µg/mL
MIC ([2]; Enterococcus faecium, clinically isolated E. faecium strain 11): 128 µg/mL (≈ 366 µM)
MIC ([2]; Enterococcus faecium, clinically isolated E. faecium strain 13): > 128 µg/mL
MIC ([2]; Enterococcus faecium, clinically isolated E. faecium strain 14): 128 µg/mL (≈ 366 µM)
MIC ([2]; Enterococcus faecium, clinically isolated E. faecium strain 15): 128 µg/mL (≈ 366 µM)
MIC [3, 22]: 1 µg/mL (≈ 2.86 µM)
MIC [3, 23]: 4 µg/mL (≈ 11.4 µM)
MIC [3, 24]: 32 µg/mL (≈ 91.6 µM)
MIC [3, 25]: 32 µg/mL (≈ 91.6 µM)
MIC [3, 26]: 16 µg/mL (≈ 45.8 µM)
MIC [3, 27]: 32 µg/mL (≈ 91.6 µM)
MIC [3, 28]: 16 µg/mL (≈ 45.8 µM)
MIC [3, 29]: 32 µg/mL (≈ 91.6 µM)
MIC [3, 30]: 32 µg/mL (≈ 91.6 µM)
MIC [3, 31]: 32 µg/mL (≈ 91.6 µM)
MIC [3, 32]: 16 µg/mL (≈ 45.8 µM)
MIC [3, 33]: 16 µg/mL (≈ 45.8 µM)
MIC (range over strains) [3]: 16 to 32 µg/mL

CN[C@H](CC(C)C)C(=O)N[C@H]1C(=O)N[C@@H](CC(N)=O)C(=O)N[C@H]2C(=O)N[C@H]3C(=O)N[C@H](C(=O)N[C@H](C(=O)O)c4cc(O)cc(O)c4-c4cc3ccc4O)[C@H](O)c3ccc(c(Cl)c3)Oc3cc2cc(c3O[C@@H]2O[C@H](CO)[C@@H](O)[C@H](O)[C@H]2O[C@H]2C[C@](C)(N)[C@H](O)[C@H](C)O2)Oc2ccc(cc2Cl)[C@H]1O [Vancomycin]
MIC [1, 4]: 128 µg/mL (≈ 88.3 µM)
MIC [1, 5]: 1 µg/mL (≈ 0.69 µM)
MIC [1, 6]: 1 µg/mL (≈ 0.69 µM)
MIC [1, 7]: 1 µg/mL (≈ 0.69 µM)
MIC [1, 8]: 1 µg/mL (≈ 0.69 µM)
MIC [1, 9]: 1 µg/mL (≈ 0.69 µM)
MIC [1, 10]: 1 µg/mL (≈ 0.69 µM)
MIC [1, 11]: 1 µg/mL (≈ 0.69 µM)
MIC [1, 12]: 1 µg/mL (≈ 0.69 µM)
MIC [1, 13]: 1 µg/mL (≈ 0.69 µM)
MIC [1, 14]: 1 µg/mL (≈ 0.69 µM)
MIC [1, 15]: 4 µg/mL (≈ 2.76 µM)
MIC [1, 16]: 1 µg/mL (≈ 0.69 µM)
MIC [1, 17]: 2 µg/mL (≈ 1.38 µM)
MIC [1, 18]: 1 µg/mL (≈ 0.69 µM)
MIC [1, 19]: 1 µg/mL (≈ 0.69 µM)
MIC (range over strains) [1]: 1 to 4 µg/mL
MIC ([2]; E. faecium (VRE) ATCC 51559): >128 µg/mL
MIC [2, 20]: 0.5 µg/mL (≈ 0.345 µM)
MIC ([2]; Enterococcus faecium, ATCC 51559 / VRE, E. faecium (VRE) ATCC 51559, read-out: MIC): > 128 µg/mL
MIC ([2]; Enterococcus faecium, ATCC 51858 / VRE, E. faecium (VRE) ATCC 51858, read-out: MIC): 128 µg/mL (≈ 88.3 µM)
MIC ([2]; Enterococcus faecium, clinically isolated E. faecium strain 1, read-out: MIC): 1 µg/mL (≈ 0.69 µM)
MIC ([2]; Enterococcus faecium, clinically isolated E. faecium strain 2, read-out: MIC): 1 µg/mL (≈ 0.69 µM)
MIC ([2]; Enterococcus faecium, clinically isolated E. faecium strain 3, read-out: MIC): 1 µg/mL (≈ 0.69 µM)
MIC ([2]; Enterococcus faecium, clinically isolated E. faecium strain 4, read-out: MIC): 1 µg/mL (≈ 0.69 µM)
MIC ([2]; Enterococcus faecium, clinically isolated E. faecium strain 5, read-out: MIC): 1 µg/mL (≈ 0.69 µM)
MIC [2, 21]: 0.5 µg/mL (≈ 0.345 µM)
MIC ([2]; Enterococcus faecium, clinically isolated E. faecium strain 8, read-out: MIC): 1 µg/mL (≈ 0.69 µM)
MIC ([2]; Enterococcus faecium, clinically isolated E. faecium strain 9, read-out: MIC): 1 µg/mL (≈ 0.69 µM)
MIC ([2]; Enterococcus faecium, clinically isolated E. faecium strain 10, read-out: MIC): 1 µg/mL (≈ 0.69 µM)
MIC ([2]; Enterococcus faecium, clinically isolated E. faecium strain 11, read-out: MIC): 1 µg/mL (≈ 0.69 µM)
MIC ([2]; Enterococcus faecium, clinically isolated E. faecium strain 13, read-out: MIC): 1 µg/mL (≈ 0.69 µM)
MIC ([2]; Enterococcus faecium, clinically isolated E. faecium strain 14, read-out: MIC): 0.5 µg/mL (≈ 0.345 µM)
MIC ([2]; Enterococcus faecium, clinically isolated E. faecium strain 15, read-out: MIC): 1 µg/mL (≈ 0.69 µM)
MIC (range over strains) ([2]; clinically isolated E. faecium (14 strains)): 0.5 to 1 µg/mL
MIC [3, 22]: 1 µg/mL (≈ 0.69 µM)
MIC [3, 23]: 1 µg/mL (≈ 0.69 µM)
MIC [3, 24]: 1 µg/mL (≈ 0.69 µM)
MIC [3, 25]: 1 µg/mL (≈ 0.69 µM)
MIC [3, 26]: 2 µg/mL (≈ 1.38 µM)
MIC [3, 27]: 2 µg/mL (≈ 1.38 µM)
MIC [3, 28]: 2 µg/mL (≈ 1.38 µM)
MIC [3, 29]: 1 µg/mL (≈ 0.69 µM)
MIC [3, 30]: 2 µg/mL (≈ 1.38 µM)
MIC [3, 31]: 1 µg/mL (≈ 0.69 µM)
MIC [3, 32]: 1 µg/mL (≈ 0.69 µM)
MIC [3, 33]: 2 µg/mL (≈ 1.38 µM)
MIC (range over strains) [3]: 1 to 2 µg/mL
